Experimental data taken from patent publication US7122668B2, “Platinum complexes and their use in therapy” (priority 2002, dated 2006).
Like-named read-outs stand apart in the source and are kept apart here.

Assays:
CH1 = assay: Microculture tetrazolium (MTS) cell survival assay; type: cell-based; conditions: 24 hours incubation
Protocol: (§1) Cytotoxicity of the synthesized complexes was also tested by the MTS method^(21). Accordingly, the compounds were incubated for 24 hours with the corresponding cell lines and the cell survival in compound-treated cultures was evaluated.
(§2) The complexes were incubated for 24 hours with the above mentioned cell lines and the cell survival in compound-treated cultures was evaluated by the (microculture tetrazolium) MTS method as previously reported.

A2780cisR = assay: Microculture tetrazolium (MTS) cell survival assay; type: cell-based; conditions: for IC50: 24 hours incubation, MTS; for resistance factor (IC50 resistant/IC50 sensitive): A2780cisR/A2780
Protocol: as §1, §2

41McisR = assay: Microculture tetrazolium (MTS) cell survival assay; type: cell-based; conditions: for resistance factor (IC50 resistant/IC50 sensitive): 41McisR/41M; for IC50: 24 hours incubation, MTS
Protocol: as §1, §2

41M = assay: Microculture tetrazolium (MTS) cell survival assay; type: cell-based; conditions: 24 hours incubation
Protocol: as §1, §2

A2780 = assay: Microculture tetrazolium (MTS) cell survival assay; type: cell-based; conditions: 24 hours incubation
Protocol: as §1, §2

CH1cisR = assay: Microculture tetrazolium (MTS) cell survival assay; type: cell-based; conditions: for IC50: 24 hours incubation, MTS; for resistance factor (IC50 resistant/IC50 sensitive): CH1cisR/CH1
Protocol: as §1, §2

calf thymus DNA = assay: DNA binding (calf thymus DNA platination); conditions: for t1/2 half time of the binding to calf thymus DNA: 10 mM NaClO4, 37° C., ri = 0.08, differential pulse polarography; for ΔTm, 0.01M Na+ / ΔTm, 0.2 M / ΔΔεmax, maximum of the positive CD band at around 275 nm: rb = 0.05; for ΔΔεmax, maximum of the positive CD band at around 275 nm: difference between control and platinated DNA
Protocol: The formation of calf thymus DNA platination was also examined. To this end, calf thymus DNA was incubated with different compounds (Table 3) in which the following parameters were determined: […]

OV-1063 cells [1] = assay: Platinum complex intracellular accumulation (FAAS); type: cell-based, human; conditions: OV-1063, 24 hr
Protocol: (§3) Cells were seeded for 48 hr before one of the complexes was added to the culture medium. After 24 hr of exposure, the complexes were removed and the cells washed twice with ice-cold PBS and pelleted. The cells (1*10^6) were dried and mineralized by heating for 10 min in 65% HNO3 (BDH, England)^(22). Samples were dissolved in de-ionized water and each sample was measured at two different dilutions by flameless Zeeman atomic absorption spectrometer (FAAS). The calibration curves included 5 standards of K2PtCl4 stock solution with concentrations ranging from 50 to 250 ng platinum per ml. Platinum content was expressed as picomoles platinum per 1*10^6 cells.
(§4) The Pt content associated with the cells was measured by Atomic Absorption Spectroscopy (AAS).

C-26 cells [2] = assay: Platinum complex intracellular accumulation (FAAS); type: cell-based, human; conditions: C-26, 24 hr
Protocol: as §3, §4

OV-1063 cells [3] = assay: Determination of Pt-DNA adducts by FAAS; type: cell-based, human; conditions: OV-1063, 24 hr
Protocol: (§5) Cells were seeded for 48 hr before one of the drugs was added to the culture medium. After 24 hr of exposure, the complexes were removed and the cells washed twice with ice-cold PBS and pelleted. DNA from platinum-containing material (2*10^6 cells) was extracted from the cell pellet by QIAamp DNA Blood Kit (QIAGEN, Germany) according to the manufacture instructions. DNA yield was determined by measuring the concentration of DNA in the eluate by absorbance at 260 nm.

C-26 cells [4] = assay: Determination of Pt-DNA adducts by FAAS; type: cell-based, human; conditions: C-26, 24 hr
Protocol: as §5

C-26 cells [5] = type: cell-based; conditions: C-26 cells, mean ± SD
Protocol: (§6) A human ovarian carcinoma cell line (OV-1063), established at the Hadassah University hospital and human colon carcinoma cell line (C-26) were maintained in RPMI-1640 medium supplemented with 10% FCS, antibiotics and glutamine. All culture medium components were purchased from Biological Industries (Beit-HaEmek, Israel). Both cell lines were maintained at 37° C. in a water-jacketed CO2 incubator.
(§7) Cytotoxicity of the synthesized complexes was tested by the methylene blue (MB) staining assay^(19). A fixed number of exponentially growing cells in 200 μl medium were plated in 96-microwell, flat-bottomed plates. For each of the complexes tested, 4 well were used. Following 24 hr in culture, 20 μl of different concentration of the complexes were added to each well containing untreated cells. Normal saline was added to the controls. Cells were exposed to complexes for 4, 24, or 72 hr. At the end of exposure for a fixed time interval, the treated cells as well as parallel control cells were washed and incubation was continued in fresh medium until termination of the experiment. Following 72 hr of growth, cells were fixed by adding 50 μl of 2.5% of glutaraldehyde to each well for 15 min. Fixed cells were rinsed 10 times with fresh de-ionized water and once with borate buffer (0.1 M, pH=8.5), dried and stained with MB (100 μl of 1% solution in 0.1 M borate buffer, pH=8.5) for 1 hr at room temperature. Stained cells were rinsed thoroughly with de-ionized water to remove any non-cell-bound die and then dried. The MB bound to the fixed cells was extracted by incubation at 37° C. with 200 μl of 0.1N HCl for 1 hr, and the net optical density (OD) of the die in each well was determined by a plate spectrophotometer (Labsystems Multyskan BICHROMATIC, Finland) at 620 nm.

OV-1063 cells [6] = assay: Methylene blue (MB) assay of cell survival; type: cell-based, human; conditions: mean ± SD
Protocol: as §6, §7

[7] = listed as cis-[PtCl2(NH3)(pip)]
[8] = 4 h exposure, read-out: IC50, 4 h
[9] = 24 h exposure, read-out: IC50, 24 h
[10] = 72 h exposure, read-out: IC50, 72 h
[11] = listed as cis-[PtCl2(NH3)(pic)]

| Molecule | IC50 (A2780cisR) | resistance factor (IC50 resistant/IC50 sensitive) (A2780cisR) | resistance factor (IC50 resistant/IC50 sensitive) (41McisR) | IC50 (41McisR) | IC50 (CH1) | IC50 (41M) | IC50 (A2780) | IC50 (CH1cisR) | resistance factor (IC50 resistant/IC50 sensitive) (CH1cisR) | t1/2 half time of the binding to calf thymus DNA (calf thymus DNA) | % IEC/adduct, frequency of interstrand crosslinks (calf thymus DNA) | unwinding angle per adduct (calf thymus DNA) | ΔTm, 0.01M Na+ (calf thymus DNA) | ΔTm, 0.2 M (calf thymus DNA) | further results |
| --- | --- | --- | --- | --- | --- | --- | --- | --- | --- | --- | --- | --- | --- | --- | --- |
| C1CCNCC1.C1CCNCC1.[Cl][Pt][Cl] [Complex 6, Trans-[PtCl2(piperidine)2]] | – | – | – | – | – | – | – | – | – | – | – | – | – | – | IC50 (CH1; listed as trans-PtCl2(pip)2): 35 ± 2 µM |
| C1CCNCC1.N.[Cl][Pt][Cl] [Complex 7, cis-[PtCl2(NH3)(piperidine)]] | 234 ± 17 µM | 9 | (4.9) | 315 ± 24 µM | 36 ± 4 µM | 64 ± 5 µM | 26 ± 3 µM | 263 ± 17 µM | (7.3) | 113 min | – | – | – | – | % IEC/adduct, frequency of interstrand crosslinks (calf thymus DNA; [7]): 5%; unwinding angle per adduct (calf thymus DNA; [7]): 13.2°; ΔTm, 0.01M Na+ (calf thymus DNA; [7]): −2.5 0.C; ΔTm, 0.2 M (calf thymus DNA; [7]): −6.0 0.C; ΔΔεmax, maximum of the positive CD band at around 275 nm (calf thymus DNA; [7]): 0.93 |
| C1CNCCN1.Cl.N.[Cl][Pt][Cl] [Complex 8, Trans-[PtCl2(NH3)(piperazine)].HCl] | 44 ± 4 µM | 8.8 | 3.0 | 155 ± 12 µM | 12 ± 3 µM | 52 ± 5 µM | 5 ± 1 µM | 34 ± 4 µM | 2.8 | 20 min | 13% | 26.4° | 6.3 0.C | −1.9 0.C | ΔΔεmax, maximum of the positive CD band at around 275 nm (calf thymus DNA): 0.01 |
| C1CNCCN1.C1CNCCN1.Cl.[Cl][Pt][Cl] [Complex 14, Trans-[PtCl2(piperazine)(piperazine)].HCl] | 43 ± 3 µM | 2.5 | 3.6 | 153 ± 10 µM | 26 ± 2 µM | 43 ± 3 µM | 17 ± 3 µM | 53 ± 3 µM | 2.0 | – | – | – | – | – | – |
| C1CNCCN1.Cl.N.[Cl][Pt@SP1][Cl] [Complex 16, cis-[PtCl2(NH3)(piperazine)].HCl] | 25 ± 2 µM | 2.5 | 2.4 | 112 ± 12 µM | 28 ± 2 µM | 46 ± 3 µM | 10 ± 1 µM | 56 ± 3 µM | 2.0 | 35 min | 6% | 13° | 3.5 0.C | −4.5 0.C | – |
| N.N.[Cl][Pt+2][Cl] [Transplatin, trans-[PtCl2(NH3)2], reference compound] | > 200 µM | – | – | > 200 µM | > 200 µM | > 200 µM | > 200 µM | > 200 µM | – | 100 min | 12% | 9.4° | +8.7 0.C | +0.6 0.C | Penetration to cells (OV-1063 cells [1]): 474 pmol Pt/1 * 10^6 cells; Penetration to cells (C-26 cells [2]): 384 pmol Pt/1 * 10^6 cells; ΔΔεmax, maximum of the positive CD band at around 275 nm (calf thymus DNA): −0.34; Pt-DNA adducts (OV-1063 cells [3]): 0 pmol Pt/50 μg DNA; Pt-DNA adducts (C-26 cells [4]): 0 pmol Pt/50 μg DNA; IC50 (C-26 cells [5]; [8]): 64 ± 2 µM; IC50 (C-26 cells [5]; [9]): 46 ± 3.1 µM; IC50 (C-26 cells [5]; [10]): 41 ± 1.7 µM; IC50 (OV-1063 cells [6]; [8]): 81 ± 4.3 µM; IC50 (OV-1063 cells [6]; [9]): 73 ± 5.1 µM; IC50 (OV-1063 cells [6]; [10]): 52 ± 3.2 µM |
| C1CCNCC1.C1CCNCC1.[Cl][Pt][Cl] [cis-PtCl2(pip)2, reference compound] | 250 ± 12 µM | (16.7) | 6 | 300 ± 25 µM | 32 ± 2 µM | 50 ± 3 µM | 15 ± 2 µM | 280 ± 12 µM | (8) | – | – | – | – | – | – |
| Cc1ccncc1.N.[Cl][Pt][Cl] [cis-[PtCl2(NH3)(4-picoline)]] [reference compound] | – | – | – | – | – | – | – | – | – | – | – | – | – | – | t1/2 half time of the binding to calf thymus DNA (calf thymus DNA; [11]): 21 min; % IEC/adduct, frequency of interstrand crosslinks (calf thymus DNA; [11]): 4%; unwinding angle per adduct (calf thymus DNA; [11]): 12°; ΔTm, 0.01M Na+ (calf thymus DNA; [11]): +1.6 0.C; ΔTm, 0.2 M (calf thymus DNA; [11]): −4.8 0.C; ΔΔεmax, maximum of the positive CD band at around 275 nm (calf thymus DNA; [11]): 0.92; IC50 (C-26 cells [5]; [8]): 5.1 ± 1.2 µM; IC50 (C-26 cells [5]; [9]): 4.7 ± 2.4 µM; IC50 (C-26 cells [5]; [10]): 3.7 ± 1.6 µM; IC50 (OV-1063 cells [6]; [8]): 6 ± 2.2 µM; IC50 (OV-1063 cells [6]; [9]): 5.1 ± 1.9 µM; IC50 (OV-1063 cells [6]; [10]): 4 ± 1.7 µM |
| Cc1ccncc1.N.[Cl][Pt][Cl] [trans-[PtCl2(NH3)(4-picoline)]] [reference compound] | – | – | – | – | – | – | – | – | – | 50 min | 40% | 39.6° | +7.2 0.C | +0.6 0.C | ΔΔεmax, maximum of the positive CD band at around 275 nm (calf thymus DNA): −0.29; IC50 (C-26 cells [5]; [8]): 12 ± 1.2 µM; IC50 (C-26 cells [5]; [9]): 11 ± 2 µM; IC50 (C-26 cells [5]; [10]): 11 ± 1.1 µM; IC50 (OV-1063 cells [6]; [8]): 18 ± 3.7 µM; IC50 (OV-1063 cells [6]; [9]): 16 ± 3.5 µM; IC50 (OV-1063 cells [6]; [10]): 14 ± 2.3 µM |
| Trans-[PtCl2(isopropylamine)(piperazine)].HCl [Complex 9] | 30 ± 2 µM | 2.1 | 3.2 | 122 ± 8 µM | 10 ± 1 µM | 38 ± 3 µM | 14 ± 1 µM | 50 ± 3 µM | 5.0 | – | – | – | – | – | – |
| Trans-[PtCl2(n-butylamine)(piperazine)].HCl [Complex 10] | 28 ± 2 µM | 1.8 | 1.5 | 48 ± 3 µM | 17 ± 2 µM | 32 ± 5 µM | 16 ± 2 µM | 19 ± 3 µM | 1.1 | – | – | – | – | – | – |
| Trans-[PtCl2(piperidine)(piperazine)].HCl [Complex 12] | 64 ± 5 µM | 3.6 | 3.2 | 118 ± 9 µM | 22 ± 3 µM | 37 ± 4 µM | 18 ± 2 µM | 85 ± 7 µM | 3.9 | – | – | – | – | – | – |
| trans-PtCl2(NH3)(4-pip)Cl2 | 20 ± 2 µM | 4.0 | 5.5 | 150 ± 8 µM | 15 ± 2 µM | 27 ± 2 µM | 5 ± 0.7 µM | 94 ± 6 µM | (6.3) | – | – | – | – | – | – |
